Experimental data as given in the NIST ThermoML archive (doi:10.1021/je500050p).
Numbers after ± are expanded uncertainties.

Test: activity coefficient (dimensionless); of the first substance listed, at infinite dilution; xn = mol fraction of the nth substance listed
Conditions: 101 kPa, Liquid, Chromatography, x1 = 0

activity coefficient (353.15 K) | activity coefficient (373.15 K) | Structure (SMILES) | activity coefficient (323.15 K) | activity coefficient (333.15 K) | activity coefficient (343.15 K)
0.38 ± 0.03 | 0.39 ± 0.03 | c1ccccc1 [benzene] + CCCCCCCCCCCCCC[N+](CCCCCC)(CCCCCC)CCCCCC.C[C@H](O)C(=O)[O-] | 0.38 ± 0.03 |  | 
 |  | CCCCO [butan-1-ol] + CC1(C)[C@@H]2CC[C@@]1(CS(=O)(=O)[O-])C(=O)C2.CCCCCCCCCCCCCC[N+](CCCCCC)(CCCCCC)CCCCCC | 0.09 ± 0.03 | 0.15 ± 0.03 | 0.27 ± 0.03
 |  | CCC(C)=O [butanone] + CC1(C)[C@@H]2CC[C@@]1(CS(=O)(=O)[O-])C(=O)C2.CCCCCCCCCCCCCC[N+](CCCCCC)(CCCCCC)CCCCCC | 0.43 ± 0.04 | 0.57 ± 0.04 | 0.73 ± 0.05
 |  | C1CCCCC1 [cyclohexane] + CC1(C)[C@@H]2CC[C@@]1(CS(=O)(=O)[O-])C(=O)C2.CCCCCCCCCCCCCC[N+](CCCCCC)(CCCCCC)CCCCCC | 0.69 ± 0.05 | 0.95 ± 0.06 | 1.24 ± 0.08
0.73 ± 0.05 | 0.71 ± 0.05 | C1CCCCC1 [cyclohexane] + CCCCCCCCCCCCCC[N+](CCCCCC)(CCCCCC)CCCCCC.C[C@H](O)C(=O)[O-] | 0.77 ± 0.05 |  | 
 |  | CCCCCCCCCC [decane] + CC1(C)[C@@H]2CC[C@@]1(CS(=O)(=O)[O-])C(=O)C2.CCCCCCCCCCCCCC[N+](CCCCCC)(CCCCCC)CCCCCC | 1.52 ± 0.1 | 2.41 ± 0.16 | 3.63 ± 0.25
1.63 ± 0.11 | 1.59 ± 0.11 | CCCCCCCCCC [decane] + CCCCCCCCCCCCCC[N+](CCCCCC)(CCCCCC)CCCCCC.C[C@H](O)C(=O)[O-] | 1.67 ± 0.11 |  | 
 |  | ClCCl [dichloromethane] + CC1(C)[C@@H]2CC[C@@]1(CS(=O)(=O)[O-])C(=O)C2.CCCCCCCCCCCCCC[N+](CCCCCC)(CCCCCC)CCCCCC | 0.09 ± 0.03 | 0.15 ± 0.03 | 0.22 ± 0.03
0.08 ± 0.03 | 0.1 | ClCCl [dichloromethane] + CCCCCCCCCCCCCC[N+](CCCCCC)(CCCCCC)CCCCCC.C[C@H](O)C(=O)[O-] | 0.06 |  | 
 |  | CCOCC [diethyl ether] + CC1(C)[C@@H]2CC[C@@]1(CS(=O)(=O)[O-])C(=O)C2.CCCCCCCCCCCCCC[N+](CCCCCC)(CCCCCC)CCCCCC | 0.73 ± 0.05 | 0.96 ± 0.06 | 1.14 ± 0.07
 |  | CC(C)OC(C)C [diisopropyl ether] + CC1(C)[C@@H]2CC[C@@]1(CS(=O)(=O)[O-])C(=O)C2.CCCCCCCCCCCCCC[N+](CCCCCC)(CCCCCC)CCCCCC | 1 | 1.39 ± 0.09 | 1.77 ± 0.12
1.08 ± 0.07 | 1.06 ± 0.07 | CC(C)OC(C)C [diisopropyl ether] + CCCCCCCCCCCCCC[N+](CCCCCC)(CCCCCC)CCCCCC.C[C@H](O)C(=O)[O-] | 1.13 ± 0.07 |  | 
 |  | CCCCCCCCCCCC [dodecane] + CC1(C)[C@@H]2CC[C@@]1(CS(=O)(=O)[O-])C(=O)C2.CCCCCCCCCCCCCC[N+](CCCCCC)(CCCCCC)CCCCCC | 1.72 ± 0.12 | 3.15 ± 0.22 | 5.14 ± 0.35
 |  | CCO [ethanol] + CC1(C)[C@@H]2CC[C@@]1(CS(=O)(=O)[O-])C(=O)C2.CCCCCCCCCCCCCC[N+](CCCCCC)(CCCCCC)CCCCCC | 0.1 | 0.17 ± 0.03 | 0.26 ± 0.03
0.03 | 0.04 | CCO [ethanol] + CCCCCCCCCCCCCC[N+](CCCCCC)(CCCCCC)CCCCCC.C[C@H](O)C(=O)[O-] | 0.03 |  | 
 |  | CCc1ccccc1 [ethylbenzene] + CC1(C)[C@@H]2CC[C@@]1(CS(=O)(=O)[O-])C(=O)C2.CCCCCCCCCCCCCC[N+](CCCCCC)(CCCCCC)CCCCCC | 0.49 ± 0.04 | 0.76 ± 0.05 | 1.11 ± 0.07
0.56 ± 0.04 | 0.57 ± 0.04 | CCc1ccccc1 [ethylbenzene] + CCCCCCCCCCCCCC[N+](CCCCCC)(CCCCCC)CCCCCC.C[C@H](O)C(=O)[O-] | 0.56 ± 0.04 |  | 
 |  | CCCCCCC [heptane] + CC1(C)[C@@H]2CC[C@@]1(CS(=O)(=O)[O-])C(=O)C2.CCCCCCCCCCCCCC[N+](CCCCCC)(CCCCCC)CCCCCC | 1.14 ± 0.07 | 1.57 ± 0.1 | 2.14 ± 0.15
1.17 ± 0.07 | 1.16 ± 0.07 | CCCCCCC [heptane] + CCCCCCCCCCCCCC[N+](CCCCCC)(CCCCCC)CCCCCC.C[C@H](O)C(=O)[O-] | 1.22 ± 0.08 |  | 
 |  | C=CCCCC [hex-1-ene] + CC1(C)[C@@H]2CC[C@@]1(CS(=O)(=O)[O-])C(=O)C2.CCCCCCCCCCCCCC[N+](CCCCCC)(CCCCCC)CCCCCC | 0.85 ± 0.05 | 1.13 ± 0.07 | 1.75 ± 0.12

activity coefficient (353.15 K) | activity coefficient (373.15 K) | Structure (SMILES) | activity coefficient (323.15 K) | activity coefficient (333.15 K) | activity coefficient (343.15 K)
0.95 ± 0.06 | 0.97 ± 0.06 | C=CCCCC [hex-1-ene] + CCCCCCCCCCCCCC[N+](CCCCCC)(CCCCCC)CCCCCC.C[C@H](O)C(=O)[O-] | 0.93 ± 0.06 |  | 
 |  | CCCCCC [hexane] + CC1(C)[C@@H]2CC[C@@]1(CS(=O)(=O)[O-])C(=O)C2.CCCCCCCCCCCCCC[N+](CCCCCC)(CCCCCC)CCCCCC | 1.05 ± 0.07 | 1.54 ± 0.1 | 1.81 ± 0.12
1.06 ± 0.07 | 1.06 ± 0.07 | CCCCCC [hexane] + CCCCCCCCCCCCCC[N+](CCCCCC)(CCCCCC)CCCCCC.C[C@H](O)C(=O)[O-] | 1.11 ± 0.07 |  | 
 |  | CO [methanol] + CC1(C)[C@@H]2CC[C@@]1(CS(=O)(=O)[O-])C(=O)C2.CCCCCCCCCCCCCC[N+](CCCCCC)(CCCCCC)CCCCCC | 0.08 ± 0.03 | 0.13 ± 0.03 | 0.2
0.03 | 0.03 | CO [methanol] + CCCCCCCCCCCCCC[N+](CCCCCC)(CCCCCC)CCCCCC.C[C@H](O)C(=O)[O-] | 0.03 |  | 
 |  | CC1CCCCC1 [methylcyclohexane] + CC1(C)[C@@H]2CC[C@@]1(CS(=O)(=O)[O-])C(=O)C2.CCCCCCCCCCCCCC[N+](CCCCCC)(CCCCCC)CCCCCC | 0.75 ± 0.05 | 1 | 1.33 ± 0.09
0.82 ± 0.05 | 0.81 ± 0.05 | CC1CCCCC1 [methylcyclohexane] + CCCCCCCCCCCCCC[N+](CCCCCC)(CCCCCC)CCCCCC.C[C@H](O)C(=O)[O-] | 0.86 ± 0.06 |  | 
 |  | CC1CCCC1 [methylcyclopentane] + CC1(C)[C@@H]2CC[C@@]1(CS(=O)(=O)[O-])C(=O)C2.CCCCCCCCCCCCCC[N+](CCCCCC)(CCCCCC)CCCCCC | 0.75 ± 0.05 | 1 | 1.33 ± 0.09
0.78 ± 0.05 | 0.77 ± 0.05 | CC1CCCC1 [methylcyclopentane] + CCCCCCCCCCCCCC[N+](CCCCCC)(CCCCCC)CCCCCC.C[C@H](O)C(=O)[O-] | 0.82 ± 0.05 |  | 
 |  | C[N+](=O)[O-] [nitromethane] + CC1(C)[C@@H]2CC[C@@]1(CS(=O)(=O)[O-])C(=O)C2.CCCCCCCCCCCCCC[N+](CCCCCC)(CCCCCC)CCCCCC | 0.34 ± 0.03 | 0.5 ± 0.1 | 0.7 ± 0.1
 |  | CCCCCCCCC [nonane] + CC1(C)[C@@H]2CC[C@@]1(CS(=O)(=O)[O-])C(=O)C2.CCCCCCCCCCCCCC[N+](CCCCCC)(CCCCCC)CCCCCC | 1.5 ± 0.1 | 2.26 ± 0.15 | 3.24 ± 0.22
1.59 ± 0.11 | 1.51 ± 0.1 | CCCCCCCCC [nonane] + CCCCCCCCCCCCCC[N+](CCCCCC)(CCCCCC)CCCCCC.C[C@H](O)C(=O)[O-] | 1.67 ± 0.11 |  | 
 |  | CCCCCCCC [octane] + CC1(C)[C@@H]2CC[C@@]1(CS(=O)(=O)[O-])C(=O)C2.CCCCCCCCCCCCCC[N+](CCCCCC)(CCCCCC)CCCCCC | 1.24 ± 0.08 | 1.81 ± 0.12 | 2.53 ± 0.17
1.31 ± 0.09 | 1.29 ± 0.08 | CCCCCCCC [octane] + CCCCCCCCCCCCCC[N+](CCCCCC)(CCCCCC)CCCCCC.C[C@H](O)C(=O)[O-] | 1.37 ± 0.09 |  | 
 |  | CCCC(C)=O [pentan-2-one] + CC1(C)[C@@H]2CC[C@@]1(CS(=O)(=O)[O-])C(=O)C2.CCCCCCCCCCCCCC[N+](CCCCCC)(CCCCCC)CCCCCC | 0.52 ± 0.04 | 0.78 ± 0.05 | 1.07 ± 0.07
0.59 ± 0.04 | 0.59 ± 0.04 | CCCC(C)=O [pentan-2-one] + CCCCCCCCCCCCCC[N+](CCCCCC)(CCCCCC)CCCCCC.C[C@H](O)C(=O)[O-] | 0.6 ± 0.1 |  | 
 |  | CCC(=O)CC [pentan-3-one] + CC1(C)[C@@H]2CC[C@@]1(CS(=O)(=O)[O-])C(=O)C2.CCCCCCCCCCCCCC[N+](CCCCCC)(CCCCCC)CCCCCC | 0.47 ± 0.04 | 0.71 ± 0.05 | 1.03 ± 0.06
0.55 ± 0.04 | 0.57 ± 0.04 | CCC(=O)CC [pentan-3-one] + CCCCCCCCCCCCCC[N+](CCCCCC)(CCCCCC)CCCCCC.C[C@H](O)C(=O)[O-] | 0.55 ± 0.04 |  | 
 |  | CCCO [propan-1-ol] + CC1(C)[C@@H]2CC[C@@]1(CS(=O)(=O)[O-])C(=O)C2.CCCCCCCCCCCCCC[N+](CCCCCC)(CCCCCC)CCCCCC | 0.09 ± 0.03 | 0.16 ± 0.03 | 0.26 ± 0.03

Structure (SMILES) | activity coefficient (353.15 K) | activity coefficient (373.15 K) | activity coefficient (323.15 K) | activity coefficient (333.15 K) | activity coefficient (343.15 K)
CCOCC [diethyl ether] + CCCCCCCCCCCCCC[N+](CCCCCC)(CCCCCC)CCCCCC.C[C@H](O)C(=O)[O-] | 0.79 ± 0.05 | 0.77 ± 0.05 | 0.84 ± 0.05 |  | 
C[N+](=O)[O-] [nitromethane] + CCCCCCCCCCCCCC[N+](CCCCCC)(CCCCCC)CCCCCC.C[C@H](O)C(=O)[O-] | 0.31 ± 0.03 | 0.31 ± 0.03 | 0.32 ± 0.03 |  | 
